Source: patent US20080171705A1, “METHODS OF INDUCING AND TREATING VASCULAR DISEASE” (priority 2007, published 2008)

Tests used:
[1] = tested on: apoE^−/− mice; assay: Health status, body weight and re-suturing incidence post mini-pump surgery; assay type: in vivo
Text: (§1) ApoE^−/− mice (backcrossed ten times to the C57BL/6 background) were purchased from The Jackson Laboratory. The mice were kept on a twelve-hour light/twelve-hour dark regimen upon arrival. All animal experiments were approved by the IACUC of the Consumer & Personal Product Worldwide, in accordance with AAALAC guidelines. Eight week old, male apoE^−/− mice were fed a normal mouse-chow diet (RP5001; PMI Feeds Inc., St. Louis, Mo.) and acclimated for one week before switching to a pro-atherogenic high fat, high cholesterol, diet (“Western diet”, 21% fat, 0.2% cholesterol, diet No. 88137, Harlan-Teklad, Madison, Wis.) for four weeks.
(§2) Upon initiation of the pro-atherogenic diet, Alzet osmotic mini-pumps (Model 2004; ALZA Scientific Products, Mountain View, Calif.) were implanted into the apoE^−/− mice subcutaneously. The mini-pumps were loaded with angII (EMD Biosciences, San Diego, Calif.) at the delivery rate of 1,000 ng/min/kg for twenty-eight days. The mice were anesthetized using isoflurane for the implantation of the mini-pumps. Small incisions in the lower back of the neck were made and the mini-pumps were inserted into the subcutaneous space of the mice. The incisions were then closed using sterile staplers. Triple antibiotic ointment was applied to each incision post surgery. The mice on the high fat, high cholesterol diet were sacrificed by CO2 inhalation twenty-eight days post mini-pump implantation as is explained in detail subsequently.
(§3) Upon initiation of the pro-atherogenic diet and osmotic mini-pump implantation, mice were randomly assigned to four groups; namely, vehicle control, rapamycin or sirolimus 0.5 mg/kg, sirolimus 1.0 mg/kg and sirolimus 4.0 mg/kg body weight. The defined amount of sirolimus was dissolved in ethanol, brought up in a vehicle comprising 0.2 percent Sodium carboxymethylcellulose and 0.25 percent tween 80) and administrated to mice (i.p., daily).
The data is depicted as re-suturing incedince post surgery per group size. A clear increase of the suture index is observed in response to sirolimus administration in a dose dependent manner.

[2] = Plasma lipids (total cholesterol, triglycerides, LDL and HDL cholesterol); assay type: in vivo, apoE^−/− mice
Text: as §1, §2, §3
Plasma triglyceride and total cholesterol levels were determined via an automated enzymatic technique (Equal Diagnostic Inc., Exton, Pa.). Mouse lipoproteins were separated by fast protein liquid chromatography (FPLC) analysis of plasma using 2 Superose 6 columns in series (Pharmacia Biotech Inc., Piscataway, N.J.). Aliquots of mouse plasma (100 μl) were injected onto the column, separated with a buffer containing 0.15 M NaCl, 0.01 M Na2HPO4, and 0.1 mM EDTA (pH 7.5) at a flow rate of 0.5 mL/min, and analyzed for lipids.

[3] = Sirolimus whole blood pharmacokinetics (LC-MS/MS); assay type: in vivo, apoE^−/− mice; settings: i.p., daily, 0.5, 1.0 and 4.0 mg/kg
Experimental: as §3
Sirolimus was quantitated using liquid-liquid extraction and reverse-phase liquid chromatography mass spectrometry (LC-MS/MS). Briefly, 100 μl of mouse whole blood sample underwent protein precipitation with 5 percent Methanol/Zinc sulfate solution containing the internal standard ascomycin. After centrifugation of the resulting solution, the liquid mixture proceeded with liquid-liquid extraction with 1-chlorobutane. The combined organic extract was then blown down to dryness and reconstituted with 50:50 Methanol:20 mM ammonium acetate solution. The samples were analyzed on API-5000 using C18 reverse-phase chromatography in Multiple Reaction Monitoring (MRM) mode using atmospheric pressure chemical ionization (APCI) approach. The calibration standard curve results for sirolimus in mouse whole blood were acceptable from 0.5 ng/ml to 10,000 ng/ml with correlation coefficient of 0.998. The percent bias for the calibration standards ranged from about […] to about 8.0 percent.
The regimen of sirolimus administration (i.p., daily, 0.5, 1.0, and 4.0 mg/kg) results in significant increase of whole blood sirolimus levels in the apoE^−/− mice within 24 hours post injection. The blood drug levels reached peak level at 1 hour post injection, dropped to approximately 30 to 40 percent at 6 hours and remained at trace level at 24 hours.

[4] = tested on: apoE^−/− mice; assay: Abdominal aortic adventitia lesion analysis (incidence and severity); assay type: in vivo; settings: 1 of 22 mice; vehicle control 30 percent, 3 of 10 mice
Text: ApoE^−/− mice (backcrossed ten times to the C57BL/6 background) were purchased from The Jackson Laboratory. The mice were kept on a twelve-hour light/twelve-hour dark regimen upon arrival. All animal experiments were approved by the IACUC of the Consumer & Personal Product Worldwide, in accordance with AAALAC guidelines. Eight week old, male apoE^−/− mice were fed a normal mouse-chow diet (RP5001; PMI Feeds Inc., St. Louis, Mo.) and acclimated for one week before switching to a pro-atherogenic high fat, high cholesterol, diet (“Western diet”, 21% fat, 0.2% cholesterol, diet No. 88137, Harlan-Teklad, Madison, Wis.) for four weeks. […]
The abdominal aorta was subjected to abdominal aortic adventitia lesion analysis. […] Classification of the adventitia lesions was determined according to the scale based on the gross appearance of the aorta reported by Daugherty et al. Briefly, I: Dilated lumen in the supra-renal region of the aorta with no thrombus; II: Remodeled tissue in the supra-renal region that frequently contains thrombus; III: A pronounced bulbous form of type II that contains thrombus; IV: A form in which there are multiple adventitia lesions containing thrombus, some overlapping, in the suprarenal area of the aorta.

elevation of LDL cholesterol ([2]; all sirolimus treated mice): > 60% | increase of plasma total cholesterol level vs vehicle control ([2]; i.p., daily, 0.5, 1.0 and 4.0 mg/kg, angII, Western diet, 28 days): 44 to 50% | increase of HDL cholesterol ([2]; mice receiving sirolimus): 55 to 81% | triglyceride ([2]; regardless of the dosage employed): trend of elevated triglyceride | blood drug level at 6 hours (relative to peak level) ([3]; 6 hours post injection): 30 to 40% | blood drug level at 24 hours ([3]; 24 hours post injection): trace level | time of peak whole blood drug level post injection ([3]; whole blood): 1 h
Structure (SMILES): CO[C@H]1C[C@@H]2CC[C@@H](C)[C@@](O)(O2)C(=O)C(=O)N2CCCC[C@H]2C(=O)O[C@H]([C@H](C)C[C@@H]2CC[C@@H](O)[C@H](OC)C2)CC(=O)[C@H](C)/C=C(\C)[C@@H](O)[C@@H](OC)C(=O)[C@H](C)C[C@H](C)/C=C/C=C/C=C/1C [sirolimus]
body weight ([1]; all 3 sirolimus treated groups, no statistical significance): trend of decreased body weight | health status ([1]; i.p., daily, 0.5, 1.0 and 4.0 mg/kg, angII infusion, high fat, high cholesterol diet): not overtly affected | re-suturing incidence post surgery (wound healing) ([1]; post mini-pump implantation, dose dependent): increased incidence of re-suturing | incidence of abdominal aortic adventitia lesion [4]: 4.5%
